Laboratory results published in ChEMBL document CHEMBL3885881, “DrugMatrix”.

Organism: Rattus norvegicus
Assay: DrugMatrix - Regimen: Daily Repeat
Assay type: toxicity, organism-based, Sprague-Dawley
Parameters: regimen Daily Repeat, gender Male, age 6-8 weeks
Settings: in vivo, po, route oral GAVAGE, […]; for ABSOLUTE BASOPHIL / ABSOLUTE EOSINOPHIL / ABSOLUTE LYMPHOCYTE / ABSOLUTE MONOCYTE / ABSOLUTE SEGMENTED NEUTROPHIL / BASOPHIL / EOSINOPHIL / ERYTHROCYTE COUNT / HEMATOCRIT / HEMOGLOBIN / LEUKOCYTE COUNT / LYMPHOCYTE / MEAN CORPUSCULAR HEMOGLOBIN / MEAN CORPUSCULAR HEMOGLOBIN CONCENTRATION / MEAN CORPUSCULAR VOLUME / MONOCYTE / NEUTROPHIL / NUCLEATED RED BLOOD CELLS / PLATELET COUNT: tissue Blood; for ALANINE AMINOTRANSFERASE / ALBUMIN / ALKALINE PHOSPHATASE / ASPARTATE AMINOTRANSFERASE / BLOOD UREA NITROGEN / CARBON DIOXIDE / CHLORIDE / CHOLESTEROL / CREATINE PHOSPHOKINASE / CREATININE / GLUCOSE / LACTATE DEHYDROGENASE / LIPASE / PHOSPHORUS / POTASSIUM / SODIUM / TOTAL BILIRUBIN / TOTAL PROTEIN / URIC ACID: tissue Plasma
[1] = 1 mg/kg, 120 h, dose level Low, time 5 day
[2] = 9 mg/kg, 72 h, dose level High, time 3 day
[3] = 9 mg/kg, 120 h, dose level High, time 5 day

With O=C(O)COC(=O)Cc1ccccc1Nc1c(Cl)cccc1Cl [ACECLOFENAC] the “ABSOLUTE BASOPHIL” value [1] was 0 CELLS/uL, the “ABSOLUTE EOSINOPHIL” value [1] was 38.33 CELLS/uL and the “ABSOLUTE LYMPHOCYTE” value [1] was 9464 CELLS/uL. For the same compound, the “ABSOLUTE MONOCYTE” value [1] was 76.67 CELLS/uL, the “ABSOLUTE SEGMENTED NEUTROPHIL” value [1] was 854.33 CELLS/uL and the BASOPHIL [1] was 0%. For the same compound, the EOSINOPHIL [1] was 0.33%, the “ERYTHROCYTE COUNT” value [1] was 5.79 x10E6/uL and the HEMATOCRIT [1] was 35.33%. The HEMOGLOBIN [1] was 13.3 G/DL, the “LEUKOCYTE COUNT” value [1] was 10.43 x10E3/uL and the LYMPHOCYTE [1] was 90.67%. The “MEAN CORPUSCULAR HEMOGLOBIN” value [1] was 23 pg, the “MEAN CORPUSCULAR HEMOGLOBIN CONCENTRATION” value [1] was 37.7 G/DL and the “MEAN CORPUSCULAR VOLUME” value [1] was 61.07 fL. The MONOCYTE [1] was 0.67%, the NEUTROPHIL [1] was 8.33% and the “NUCLEATED RED BLOOD CELLS” value [1] was 0 /100WBC. For the same compound, the “PLATELET COUNT” value [1] was 1057.67 x10E3/uL, the “ALANINE AMINOTRANSFERASE” value [1] was 60.67 u/L and the ALBUMIN [1] was 4.07 G/DL. For the same compound, the “ALKALINE PHOSPHATASE” value [1] was 388 u/L, the “ASPARTATE AMINOTRANSFERASE” value [1] was 80.67 u/L and the “BLOOD UREA NITROGEN” value [1] was 14.33 mg/dL. The “CARBON DIOXIDE” value [1] was 30.33 mmol/L, the CHLORIDE [1] was 101.33 MEQ/L and the CHOLESTEROL [1] was 53.33 mg/dL. The “CREATINE PHOSPHOKINASE” value [1] was 180.67 u/L, the CREATININE [1] was 0.15 mg/dL and the GLUCOSE [1] was 160.67 mg/dL. For the same compound, the “LACTATE DEHYDROGENASE” value [1] was 106 u/L, the LIPASE [1] was 9 u/L and the PHOSPHORUS [1] was 9.9 mg/dL. For the same compound, the POTASSIUM [1] was 5.17 MEQ/L, the SODIUM [1] was 143 MEQ/L and the “TOTAL BILIRUBIN” value [1] was 0.23 mg/dL. The “TOTAL PROTEIN” value [1] was 5.8 G/DL, the “URIC ACID” value [1] was 0.83 mg/dL and the “ABSOLUTE BASOPHIL” value [2] was 0 CELLS/uL. For the same compound, the “ABSOLUTE EOSINOPHIL” value [2] was 21.67 CELLS/uL, the “ABSOLUTE LYMPHOCYTE” value [2] was 7429.67 CELLS/uL and the “ABSOLUTE MONOCYTE” value [2] was 92.33 CELLS/uL. The “ABSOLUTE SEGMENTED NEUTROPHIL” value [2] was 1189.67 CELLS/uL, the BASOPHIL [2] was 0% and the EOSINOPHIL [2] was 0.33%. For the same compound, the “ERYTHROCYTE COUNT” value [2] was 5.12 x10E6/uL, the HEMATOCRIT [2] was 32.1% and the HEMOGLOBIN [2] was 12.63 G/DL. For the same compound, the “LEUKOCYTE COUNT” value [2] was 8.73 x10E3/uL, the LYMPHOCYTE [2] was 84.67% and the “MEAN CORPUSCULAR HEMOGLOBIN” value [2] was 24.73 pg. For the same compound, the “MEAN CORPUSCULAR HEMOGLOBIN CONCENTRATION” value [2] was 39.37 G/DL, the “MEAN CORPUSCULAR VOLUME” value [2] was 62.73 fL and the MONOCYTE [2] was 1.33%. The NEUTROPHIL [2] was 13.67%, the “NUCLEATED RED BLOOD CELLS” value [2] was 0 /100WBC and the “PLATELET COUNT” value [2] was 823.33 x10E3/uL. The “ALANINE AMINOTRANSFERASE” value [2] was 57 u/L, the ALBUMIN [2] was 3.37 G/DL and the “ALKALINE PHOSPHATASE” value [2] was 253 u/L. The “ASPARTATE AMINOTRANSFERASE” value [2] was 77.33 u/L, the “BLOOD UREA NITROGEN” value [2] was 10.67 mg/dL and the “CARBON DIOXIDE” value [2] was 34 mmol/L. The CHLORIDE [2] was 99 MEQ/L, the CHOLESTEROL [2] was 73.67 mg/dL and the “CREATINE PHOSPHOKINASE” value [2] was 625.67 u/L. For the same compound, the CREATININE [2] was 0.12 mg/dL, the GLUCOSE [2] was 160.67 mg/dL and the “LACTATE DEHYDROGENASE” value [2] was 163.33 u/L. The LIPASE [2] was 8.67 u/L, the PHOSPHORUS [2] was 11.57 mg/dL and the POTASSIUM [2] was 6.06 MEQ/L. The SODIUM [2] was 143.37 MEQ/L, the “TOTAL BILIRUBIN” value [2] was 0.13 mg/dL and the “TOTAL PROTEIN” value [2] was 5.3 G/DL. The “URIC ACID” value [2] was 1.03 mg/dL, the “ABSOLUTE BASOPHIL” value [3] was 0 CELLS/uL and the “ABSOLUTE EOSINOPHIL” value [3] was 0 CELLS/uL. The “ABSOLUTE LYMPHOCYTE” value [3] was 9903.33 CELLS/uL, the “ABSOLUTE MONOCYTE” value [3] was 435.33 CELLS/uL and the “ABSOLUTE SEGMENTED NEUTROPHIL” value [3] was 2861.33 CELLS/uL. The BASOPHIL [3] was 0%, the EOSINOPHIL [3] was 0% and the “ERYTHROCYTE COUNT” value [3] was 4.91 x10E6/uL. For the same compound, the HEMATOCRIT [3] was 29.6%, the HEMOGLOBIN [3] was 11.33 G/DL and the “LEUKOCYTE COUNT” value [3] was 13.2 x10E3/uL. The LYMPHOCYTE [3] was 75.33%, the “MEAN CORPUSCULAR HEMOGLOBIN” value [3] was 23.1 pg and the “MEAN CORPUSCULAR HEMOGLOBIN CONCENTRATION” value [3] was 38.33 G/DL. For the same compound, the “MEAN CORPUSCULAR VOLUME” value [3] was 60.27 fL, the MONOCYTE [3] was 3.33% and the NEUTROPHIL [3] was 21.33%. For the same compound, the “NUCLEATED RED BLOOD CELLS” value [3] was 0.33 /100WBC, the “PLATELET COUNT” value [3] was 1272 x10E3/uL and the “ALANINE AMINOTRANSFERASE” value [3] was 58.33 u/L. For the same compound, the ALBUMIN [3] was 3.03 G/DL, the “ALKALINE PHOSPHATASE” value [3] was 312 u/L and the “ASPARTATE AMINOTRANSFERASE” value [3] was 78.33 u/L. The “BLOOD UREA NITROGEN” value [3] was 12 mg/dL, the “CARBON DIOXIDE” value [3] was 28.33 mmol/L and the CHLORIDE [3] was 101.67 MEQ/L. The CHOLESTEROL [3] was 58.33 mg/dL, the “CREATINE PHOSPHOKINASE” value [3] was 296.67 u/L and the CREATININE [3] was 0.2 mg/dL. For the same compound, the GLUCOSE [3] was 165 mg/dL, the “LACTATE DEHYDROGENASE” value [3] was 151 u/L and the LIPASE [3] was 10 u/L. It also gave a PHOSPHORUS [3] of 10.13 mg/dL, a POTASSIUM [3] of 5.79 MEQ/L and an SODIUM [3] of 144.97 MEQ/L. For the same compound, the “TOTAL BILIRUBIN” value [3] was 0.13 mg/dL, the “TOTAL PROTEIN” value [3] was 5.03 G/DL and the “URIC ACID” value [3] was 1.1 mg/dL.
